Assays:
[1] = target: T1, nAChR subtype alpha3beta4 (Homo sapiens, UniProt P30926+P32297); details: cited from earlier work
T1 construct: expressed in transfected cells

[2] = target: T2, nAChR subtype alpha3alpha5beta4 (Homo sapiens, UniProt P30926+P32297); details: cited from earlier work
T2 construct: expressed in transfected cells

[3] = target: T3, nAChR subtype alpha3beta2 (Homo sapiens, UniProt P17787+P32297); details: cited from earlier work
T3 construct: expressed in transfected cells

[4] = target: T4, nAChR subtype alpha4beta2 (Homo sapiens, UniProt P17787+P43681); details: cited from earlier work
T4 construct: expressed in transfected cells
T4 sequence (P43681 29-627 limits assumed): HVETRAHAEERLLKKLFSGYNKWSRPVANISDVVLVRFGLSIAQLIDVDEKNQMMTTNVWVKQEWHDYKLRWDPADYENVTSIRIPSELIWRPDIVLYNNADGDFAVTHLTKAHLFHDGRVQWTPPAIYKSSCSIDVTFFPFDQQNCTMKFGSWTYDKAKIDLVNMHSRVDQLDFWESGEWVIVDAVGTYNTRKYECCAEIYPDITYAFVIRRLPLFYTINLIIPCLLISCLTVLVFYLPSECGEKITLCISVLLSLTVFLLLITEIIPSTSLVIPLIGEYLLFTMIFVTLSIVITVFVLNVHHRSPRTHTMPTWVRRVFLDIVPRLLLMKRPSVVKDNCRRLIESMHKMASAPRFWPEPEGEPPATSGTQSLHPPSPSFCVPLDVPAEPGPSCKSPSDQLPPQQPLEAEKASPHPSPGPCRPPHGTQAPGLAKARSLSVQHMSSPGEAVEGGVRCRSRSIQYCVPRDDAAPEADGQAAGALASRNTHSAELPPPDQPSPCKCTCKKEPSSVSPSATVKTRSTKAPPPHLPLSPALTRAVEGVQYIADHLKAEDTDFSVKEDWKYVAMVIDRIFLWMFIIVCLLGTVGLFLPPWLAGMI
T4 sequence (P17787 26-502): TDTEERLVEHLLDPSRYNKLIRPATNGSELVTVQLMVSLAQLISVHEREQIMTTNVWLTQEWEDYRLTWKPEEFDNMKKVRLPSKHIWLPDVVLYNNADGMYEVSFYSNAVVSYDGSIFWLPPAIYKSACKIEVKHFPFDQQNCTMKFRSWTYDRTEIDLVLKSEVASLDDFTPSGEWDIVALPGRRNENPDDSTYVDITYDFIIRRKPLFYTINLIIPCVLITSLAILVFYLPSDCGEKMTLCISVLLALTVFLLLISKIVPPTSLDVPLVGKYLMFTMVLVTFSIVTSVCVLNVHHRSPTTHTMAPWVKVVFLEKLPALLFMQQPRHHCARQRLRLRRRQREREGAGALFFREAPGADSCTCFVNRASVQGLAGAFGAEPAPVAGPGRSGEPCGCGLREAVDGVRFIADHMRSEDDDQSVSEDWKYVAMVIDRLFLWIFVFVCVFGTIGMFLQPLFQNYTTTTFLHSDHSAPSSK

[5] = target: T5, nAChR subtype alpha4alpha6beta2 (Homo sapiens, UniProt P17787+P43681+Q15825); details: cited from earlier work
T5 construct: expressed in transfected cells
T5 sequence (P43681 29-627 limits assumed): as the sequence (P43681 29-627 limits assumed) above
T5 sequence (Q15825 26-494): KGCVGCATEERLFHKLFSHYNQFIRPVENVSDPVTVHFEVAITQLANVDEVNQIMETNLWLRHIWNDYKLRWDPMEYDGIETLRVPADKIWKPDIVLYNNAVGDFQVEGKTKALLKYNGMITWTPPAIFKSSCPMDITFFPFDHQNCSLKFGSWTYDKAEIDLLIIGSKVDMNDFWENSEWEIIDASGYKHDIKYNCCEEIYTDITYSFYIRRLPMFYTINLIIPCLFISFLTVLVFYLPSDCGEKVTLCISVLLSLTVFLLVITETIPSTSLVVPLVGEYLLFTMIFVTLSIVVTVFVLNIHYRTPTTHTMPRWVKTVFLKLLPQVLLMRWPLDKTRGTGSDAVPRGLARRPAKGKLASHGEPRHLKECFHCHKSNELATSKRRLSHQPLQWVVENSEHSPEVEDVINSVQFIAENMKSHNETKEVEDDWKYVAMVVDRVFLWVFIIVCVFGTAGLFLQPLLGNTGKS
T5 sequence (P17787 26-502): as the sequence (P17787 26-502) above

nAChR subtype alpha7 [6] = target: T6, nAChR subtype alpha7 (Homo sapiens, UniProt P36544); details: cited from earlier work
T6 construct: expressed in transfected cells
T6 sequence (P36544 23-502): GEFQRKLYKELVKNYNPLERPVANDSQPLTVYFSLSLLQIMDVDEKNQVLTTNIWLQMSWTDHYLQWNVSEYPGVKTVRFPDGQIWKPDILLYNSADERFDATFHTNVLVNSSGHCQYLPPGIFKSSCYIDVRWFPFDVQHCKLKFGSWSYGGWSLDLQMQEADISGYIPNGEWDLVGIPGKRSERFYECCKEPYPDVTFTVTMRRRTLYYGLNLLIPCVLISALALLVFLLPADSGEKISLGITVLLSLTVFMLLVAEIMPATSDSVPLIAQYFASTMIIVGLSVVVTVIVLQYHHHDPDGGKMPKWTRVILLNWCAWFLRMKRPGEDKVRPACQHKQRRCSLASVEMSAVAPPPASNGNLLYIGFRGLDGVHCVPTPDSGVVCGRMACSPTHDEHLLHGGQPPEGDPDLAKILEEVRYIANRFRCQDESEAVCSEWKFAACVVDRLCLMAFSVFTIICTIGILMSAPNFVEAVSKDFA

nAChR subtype alpha7 [7] = target: T6, nAChR subtype alpha7; assay: nAChR agonist response (ACh-normalised evoked current), subtype alpha7; type: cell-based; details: 300 micromolar concentration
Text: In general, a nAChR agonist is a full agonist if it evokes a response upon binding to a given receptor that is equal or greater to that of ACh.
nAChR agonist response, from which receptor activation can be determined can, for example, be generated using an appropriate cell-based assay. Cells designed to express a particular nAChR receptor subtype and generate an electrical current response when bound to and activated by a nAChR agonist can be used to characterize the agonist profile of a compound and the amount of receptor activation thus determined. An example of a generic protocol is described below.
Cells that express a particular human nAChR subtype are first exposed to ACh. ACh binds and activates the receptor, thereby evoking a current. The concentration of the ACh is chosen to elicit the maximum response of the receptor (e.g., 1280 micromolar ACh). This current is recorded as the ACh response and serves as the 100% nAChR agonist response and to which responses to other nAChR agonists are compared. […]
The current evoked by exposure to the nAChR agonist is measured and recorded for each nAChR concentration. […] The nAChR agonist response is then calculated as a percentage of the ACh response.
A nAChR agonist evoking a response equal to or greater than the maximum ACh response determined at the same receptor type is a full agonist. […]

[8] = target: T7, nAChR subtype alpha6beta2 (Homo sapiens, UniProt P17787+Q15825); details: cited from earlier work
T7 construct: expressed in transfected cells
T7 sequence (Q15825 26-494): as the sequence (Q15825 26-494) above
T7 sequence (P17787 26-502): as the sequence (P17787 26-502) above

T2 sequence (P32297 32-505): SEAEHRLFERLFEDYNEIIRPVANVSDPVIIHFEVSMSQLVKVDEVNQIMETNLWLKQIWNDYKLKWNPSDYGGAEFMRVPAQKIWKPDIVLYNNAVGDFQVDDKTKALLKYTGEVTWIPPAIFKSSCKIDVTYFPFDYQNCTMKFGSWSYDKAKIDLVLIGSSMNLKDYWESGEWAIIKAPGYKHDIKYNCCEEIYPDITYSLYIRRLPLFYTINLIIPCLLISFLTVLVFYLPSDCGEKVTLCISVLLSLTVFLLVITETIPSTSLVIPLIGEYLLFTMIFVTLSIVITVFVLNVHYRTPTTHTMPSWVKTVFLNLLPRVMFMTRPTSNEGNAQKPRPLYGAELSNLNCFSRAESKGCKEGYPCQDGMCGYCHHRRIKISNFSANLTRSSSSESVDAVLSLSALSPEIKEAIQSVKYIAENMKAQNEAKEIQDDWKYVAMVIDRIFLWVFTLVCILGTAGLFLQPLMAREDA
T2 sequence (P30532 23-468 partner): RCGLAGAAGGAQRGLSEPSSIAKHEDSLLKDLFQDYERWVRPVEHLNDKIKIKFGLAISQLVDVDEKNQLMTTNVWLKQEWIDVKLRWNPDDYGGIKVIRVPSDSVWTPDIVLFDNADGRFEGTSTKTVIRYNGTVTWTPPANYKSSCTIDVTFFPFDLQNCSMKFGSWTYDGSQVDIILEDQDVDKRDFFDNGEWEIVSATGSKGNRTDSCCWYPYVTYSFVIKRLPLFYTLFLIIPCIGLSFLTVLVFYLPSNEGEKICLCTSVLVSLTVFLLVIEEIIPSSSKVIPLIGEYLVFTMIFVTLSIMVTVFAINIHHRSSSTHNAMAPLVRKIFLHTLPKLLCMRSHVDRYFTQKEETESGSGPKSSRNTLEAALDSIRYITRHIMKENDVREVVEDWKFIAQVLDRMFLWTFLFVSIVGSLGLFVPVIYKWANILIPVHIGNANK
T2 sequence (P30926 22-498): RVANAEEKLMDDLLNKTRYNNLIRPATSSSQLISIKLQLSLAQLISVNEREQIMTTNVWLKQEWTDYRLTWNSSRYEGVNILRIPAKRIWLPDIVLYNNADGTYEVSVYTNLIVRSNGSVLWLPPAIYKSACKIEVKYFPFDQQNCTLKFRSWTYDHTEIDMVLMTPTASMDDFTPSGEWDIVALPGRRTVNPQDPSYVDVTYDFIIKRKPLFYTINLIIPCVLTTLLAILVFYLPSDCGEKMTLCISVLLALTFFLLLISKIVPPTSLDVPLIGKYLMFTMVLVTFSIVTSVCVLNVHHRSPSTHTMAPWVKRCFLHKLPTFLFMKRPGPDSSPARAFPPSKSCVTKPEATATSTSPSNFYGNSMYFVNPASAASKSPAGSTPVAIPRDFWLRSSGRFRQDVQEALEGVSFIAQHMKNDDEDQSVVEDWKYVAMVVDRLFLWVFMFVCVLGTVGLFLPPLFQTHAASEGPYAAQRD
T1 sequence (P32297 32-505): as the sequence (P32297 32-505) above
T1 sequence (P30926 22-498): as the sequence (P30926 22-498) above
T3 sequence (P32297 32-505): as the sequence (P32297 32-505) above
T3 sequence (P17787 26-502): as the sequence (P17787 26-502) above

Row | Compound | agonist characterisation at nAChR subtype alpha3beta4 [1] | agonist characterisation at nAChR subtype alpha3alpha5beta4 [2] | agonist characterisation at nAChR subtype alpha3beta2 [3] | agonist characterisation at nAChR subtype alpha4beta2 [4] | agonist characterisation at nAChR subtype alpha4alpha6beta2 [5] | agonist characterisation at nAChR subtype alpha7 (nAChR subtype alpha7 [6]) | evoked current as % of the maximal ACh-evoked current (nAChR subtype alpha7 [7]) | agonist characterisation at nAChR subtype alpha6beta2 [8]
1 | C(=C\[C@H]1CCNC1)/c1cncnc1 [Compound 1, (R)-5-((E)-2-pyrrolidin-3-ylvinyl)pyrimidine] | full agonist | full agonist | partial agonist | full agonist | full agonist | weak partial agonist |  | 
2 | C(=C\[C@H]1CCNC1)/c1cncnc1.O=C(O)CC(O)(CC(=O)O)C(=O)O [compound 1 citrate, (R)-5-((E)-2-pyrrolidin-3-ylvinyl)pyrimidine mono-citrate] |  |  |  |  |  |  | 25% | 
3 | O=C(O)C(O)C(O)C(=O)O.c1cnc2cc3c(cc2n1)C1CNCC3C1 [Varenicline] | partial agonist | partial agonist |  | partial agonist | partial agonist | full agonist |  | partial agonist

From patent publication US20250352668A1, “AAV VECTOR ENCODING DIAMINE OXIDASE AND USES THEREOF” (OYSTER POINT PHARMA, INC., priority 2022, published 2025)
